# From patent publication US20090311217A1, “3-SUBSTITUTED-1H-INDOLE COMPOUNDS, THEIR USE AS MTOR KINASE AND PI3 KINASE INHIBITORS, AND THEIR SYNTHESES” (priority 2008, published 2009)
# What was measured:
# Type in all cases: biochemical
# [1] = molecular target: PI3K-alpha (Homo sapiens, UniProt P42336); experiment: PI3K-alpha fluorescence polarization assay; conditions: read-out: PI3Kα Avg. IC50
# [2] = molecular target: PI3K-gamma (Homo sapiens, UniProt P48736); experiment: PI3K-gamma fluorescence polarization assay; conditions: PI3Kγ Avg. IC50
# Method in brief: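 Enzyme 5 ng; substrate diC8-PI(4,5)P2 2.5 μM; ATP 25 μM; 5 mM HEPES pH 7, 2.5 mM MgCl2; DMSO ≤2%; 1 h, 25° C. Quench 10 mM EDTA. Detect with GRP1 PH domain 100 nM + TMR-IP4 probe 5 nM by polarization.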
# [3] = molecular target: T1, human TOR (Homo sapiens, UniProt P42345); experiment: mTOR enzyme assay (DELFIA, His6-S6K substrate); conditions: read-out: mTOR Kinase Avg. IC50
# T1 construct: FLAG
# Chain of PI3K-alpha (P42336 whole entry, species assumed): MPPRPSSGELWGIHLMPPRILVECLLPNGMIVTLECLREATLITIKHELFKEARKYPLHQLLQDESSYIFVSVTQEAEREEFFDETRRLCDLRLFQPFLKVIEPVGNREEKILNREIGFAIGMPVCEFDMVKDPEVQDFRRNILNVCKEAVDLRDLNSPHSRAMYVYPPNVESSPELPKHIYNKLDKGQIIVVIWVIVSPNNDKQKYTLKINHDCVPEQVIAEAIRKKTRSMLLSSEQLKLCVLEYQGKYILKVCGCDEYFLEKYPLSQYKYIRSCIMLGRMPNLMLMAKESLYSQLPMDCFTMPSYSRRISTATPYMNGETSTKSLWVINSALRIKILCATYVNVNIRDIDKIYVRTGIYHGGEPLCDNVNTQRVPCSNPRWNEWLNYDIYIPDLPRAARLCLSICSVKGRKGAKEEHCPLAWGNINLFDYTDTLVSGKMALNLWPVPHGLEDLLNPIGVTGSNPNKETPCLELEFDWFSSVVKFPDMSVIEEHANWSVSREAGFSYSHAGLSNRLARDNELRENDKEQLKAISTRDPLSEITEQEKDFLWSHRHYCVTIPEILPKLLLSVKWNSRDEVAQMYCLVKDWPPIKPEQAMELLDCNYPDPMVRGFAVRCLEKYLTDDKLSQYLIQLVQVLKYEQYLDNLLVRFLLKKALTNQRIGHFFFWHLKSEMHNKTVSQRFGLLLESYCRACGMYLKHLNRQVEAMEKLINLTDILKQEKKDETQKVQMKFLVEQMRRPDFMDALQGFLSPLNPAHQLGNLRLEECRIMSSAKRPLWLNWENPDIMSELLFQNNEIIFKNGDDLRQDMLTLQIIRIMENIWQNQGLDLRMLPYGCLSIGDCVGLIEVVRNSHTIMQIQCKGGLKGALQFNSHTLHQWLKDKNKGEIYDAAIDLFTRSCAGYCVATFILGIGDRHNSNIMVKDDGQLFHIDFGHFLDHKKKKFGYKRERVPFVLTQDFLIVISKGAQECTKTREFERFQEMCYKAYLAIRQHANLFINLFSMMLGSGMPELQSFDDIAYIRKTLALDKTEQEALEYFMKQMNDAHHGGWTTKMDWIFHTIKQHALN
# Chain of PI3K-alpha (P27986 whole entry partner, species assumed): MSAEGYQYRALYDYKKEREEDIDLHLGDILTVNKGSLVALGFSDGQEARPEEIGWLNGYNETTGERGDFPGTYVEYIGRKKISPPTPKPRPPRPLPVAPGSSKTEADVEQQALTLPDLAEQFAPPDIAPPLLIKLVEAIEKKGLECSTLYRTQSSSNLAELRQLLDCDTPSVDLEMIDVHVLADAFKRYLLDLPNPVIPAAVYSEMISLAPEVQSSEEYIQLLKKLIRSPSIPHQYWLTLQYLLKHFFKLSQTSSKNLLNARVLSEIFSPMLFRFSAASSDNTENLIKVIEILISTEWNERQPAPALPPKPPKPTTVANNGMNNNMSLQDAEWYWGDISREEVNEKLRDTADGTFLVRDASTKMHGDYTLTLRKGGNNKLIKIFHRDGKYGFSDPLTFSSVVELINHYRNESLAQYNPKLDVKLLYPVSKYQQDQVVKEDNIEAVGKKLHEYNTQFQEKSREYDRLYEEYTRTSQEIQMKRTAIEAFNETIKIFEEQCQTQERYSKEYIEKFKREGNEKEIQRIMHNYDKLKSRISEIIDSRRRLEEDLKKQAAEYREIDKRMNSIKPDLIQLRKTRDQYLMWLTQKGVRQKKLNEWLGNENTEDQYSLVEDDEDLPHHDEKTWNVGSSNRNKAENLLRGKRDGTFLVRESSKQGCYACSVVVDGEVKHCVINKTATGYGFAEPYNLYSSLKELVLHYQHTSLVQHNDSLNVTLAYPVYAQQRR
# Chain of PI3K-gamma (P48736 whole entry, species assumed, the tested form may be a part): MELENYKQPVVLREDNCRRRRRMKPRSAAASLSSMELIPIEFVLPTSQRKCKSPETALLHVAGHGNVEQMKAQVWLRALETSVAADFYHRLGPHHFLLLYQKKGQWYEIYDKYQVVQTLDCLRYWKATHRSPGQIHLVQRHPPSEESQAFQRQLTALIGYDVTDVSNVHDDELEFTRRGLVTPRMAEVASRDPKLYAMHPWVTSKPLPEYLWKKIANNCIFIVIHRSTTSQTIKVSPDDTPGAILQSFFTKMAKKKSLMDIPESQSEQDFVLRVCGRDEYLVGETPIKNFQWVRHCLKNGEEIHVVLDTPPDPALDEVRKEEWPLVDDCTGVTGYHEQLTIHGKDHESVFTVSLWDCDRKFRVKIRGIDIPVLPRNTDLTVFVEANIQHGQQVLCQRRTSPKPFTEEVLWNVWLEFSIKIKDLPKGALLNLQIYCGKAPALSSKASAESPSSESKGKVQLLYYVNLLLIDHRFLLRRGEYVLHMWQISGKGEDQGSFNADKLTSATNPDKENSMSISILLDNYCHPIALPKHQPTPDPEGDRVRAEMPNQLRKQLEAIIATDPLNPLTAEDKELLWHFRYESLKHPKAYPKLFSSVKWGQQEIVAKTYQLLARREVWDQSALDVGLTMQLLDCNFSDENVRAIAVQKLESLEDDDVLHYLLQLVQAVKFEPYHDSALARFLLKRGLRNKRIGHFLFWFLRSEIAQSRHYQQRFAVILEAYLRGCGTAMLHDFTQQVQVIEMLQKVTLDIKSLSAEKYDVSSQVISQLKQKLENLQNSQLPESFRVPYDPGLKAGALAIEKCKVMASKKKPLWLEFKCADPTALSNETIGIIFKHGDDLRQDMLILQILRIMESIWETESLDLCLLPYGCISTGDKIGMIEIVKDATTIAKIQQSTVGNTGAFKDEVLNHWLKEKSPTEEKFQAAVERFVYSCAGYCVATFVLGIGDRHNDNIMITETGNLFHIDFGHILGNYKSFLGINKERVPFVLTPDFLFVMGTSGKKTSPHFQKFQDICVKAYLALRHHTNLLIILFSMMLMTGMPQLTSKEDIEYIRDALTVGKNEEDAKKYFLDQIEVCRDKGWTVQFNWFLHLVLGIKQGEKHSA
IC50 [1],IC50 [2],IC50 [3],Compound
49.5 nM,550 nM,2200 nM,"COc1ccc2c(c1)c(/C=C1\Oc3cc(O)ccc3C1=O)c(C)n2CCN1CCCC1C (stereo not drawn) [Example 453, (2Z)-6-Hydroxy-2-({5-methoxy-2-methyl-1-[2-(2-methylpyrrolidin-1-yl)ethyl]-1H-indol-3-yl}methylene)-1-benzofuran-3(2H)-one]"
9 nM,40 nM,370 nM,"CCn1c(C)c(/C=C2\Oc3ccc(NC(=O)Nc4ccc(N(C)CCCCN(C)C)cc4)cc3C2=O)c2cc(OC)ccc21 [Compound 675, 1-(4-{[4-(dimethylamino)butyl](methyl)amino}phenyl)-3-{(2Z)-2-[(1-ethyl-5-methoxy-2-methyl-1H-indol-3-yl)methylidene]-3-oxo-2,3-dihydro-1-benzofuran-5-yl}urea]"
1650 nM,1080 nM,3500 nM,"O=C1/C(=C/c2c[nH]c3cccc(-c4ccc(F)cc4)c23)Oc2cc(O)cc(O)c21 [Example 363, (2Z)-2-{[4-(4-fluorophenyl)-1H-indol-3-yl]methylene}-4,6-dihydroxy-1-benzofuran-3(2H)-one]"
0.25 nM,2.1 nM,1 nM,"COc1ccc2[nH]c(-c3c(C)nn(C)c3C)c(/C=C3\Oc4ccc(NC(=O)Nc5ccc(NC(=O)CCN(C)C)cc5)cc4C3=O)c2c1 [Compound 691, N-[4-({[(2Z)-2-{[5-methoxy-2-(1,3,5-trimethyl-1H-pyrazol-4-yl)-1H-indol-3-yl]methylidene}-3-oxo-2,3-dihydro-1-benzofuran-5-yl]carbamoyl}amino)phenyl]-N3,N3-dimethyl-b-alaninamide]"
3 nM,48 nM,5 nM,"COc1ccc2[nH]c(-c3c(C)nn(C)c3C)c(/C=C3\Oc4ccc(NC(=O)Nc5ccc(N(C)C(=O)CCN(C)C)cc5)cc4C3=O)c2c1 [Compound 696, N-(4-{[(2-{[5-methoxy-2-(1,3,5-trimethyl-1H-pyrazol-4-yl)-1H-indol-3-yl]methylidene}-3-oxo-2,3-dihydro-1-benzofuran-5-yl)carbamoyl]amino}phenyl)-N,N3,N3-trimethyl-b-alaninamide]"
2110 nM,4220 nM,710 nM,"COCCn1c(-c2ccccc2)c(C=C2Oc3cc(O)cc(O)c3C2=O)c2ccccc21 [Example 151, 4,6-dihydroxy-2-{[1-(2-methoxyethyl)-2-phenyl-1H-indol-3-yl]methylene}-1-benzofuran-3(2H)-one]"
191 nM,6690 nM,> 20000 nM,"COc1ccc2c(c1)c(/C=C1\Oc3cc(O)c(C)cc3C1=O)c(C)n2CCCN(C)C [Example 459, (2Z)-2-({1-[3-(Dimethylamino)propyl]-5-methoxy-2-methyl-1H-indol-3-yl}methylene)-6-hydroxy-5-methyl-1-benzofuran-3(2H)-one]"
3520 nM,4590 nM,340 nM,"CN(C)CCCNC(=O)c1ccc(-c2cccc3c2c(/C=C2\Oc4cc(O)cc(O)c4C2=O)cn3C)cc1 [Example 387, 4-{3-[(Z)-(4,6-Dihydroxy-3-oxo-1-benzofuran-2(3H)-ylidene)methyl]-1-methyl-1H-indol-4-yl}-N-[3-(dimethylamino)propyl]benzamide]"
187 nM,3360 nM,9100 nM,"O=C1C(=Cc2c[nH]c3ccc(I)cc23)Oc2cc(O)cc(O)c21 [Example 177, 4,6-dihydroxy-2-[(5-iodo-1H-indol-3-yl)methylene]-1-benzofuran-3(2H)-one]"
935 nM,1650 nM,61 nM,"Cn1cc(/C=C2\Oc3cc(O)cc(O)c3C2=O)c2c(-c3ccc(NC(=O)N4CCOCC4)cc3)cccc21 [Example 404, N-(4-{3-[(Z)-(4,6-dihydroxy-3-oxo-1-benzofuran-2(3H)-ylidene)methyl]-1-methyl-1H-indol-4-yl}phenyl)morpholine-4-carboxamide]"
> 10000 nM,> 10000 nM,> 20000 nM,"COc1ccc2[nH]cc(C=C3Oc4cc(S(C)(=O)=O)ccc4C3=O)c2c1 [Example 436, 2-[(5-Methoxy-1H-indol-3-yl)methylene]-6-(methylsulfonyl)-1-benzofuran-3(2H)-one]"
735 nM,> 10000 nM,8300 nM,"Cn1cc(C=C2Oc3cc(O)cc(O)c3C2=O)c2cccc([N+](=O)[O-])c21 [Example 229, 4,6-dihydroxy-2-[(1-methyl-7-nitro-1H-indol-3-yl)methylene]-1-benzofuran-3(2H)-one]"
13 nM,74 nM,530 nM,"CNC(=O)Nc1ccc2c(c1)C(=O)/C(=C/c1c(-c3c(C)nn(C)c3C)[nH]c3c(C(F)(F)F)cc(OC)cc13)O2 [Compound 725, 1-[(2Z)-2-{[5-methoxy-7-(trifluoromethyl)-2-(1,3,5-trimethyl-1H-pyrazol-4-yl)-1H-indol-3-yl]methylidene}-3-oxo-2,3-dihydro-1-benzofuran-5-yl]-3-methylurea]"
3.1 nM,41.5 nM,275 nM,"CCn1c(C)c(/C=C2\Oc3ccc(NC(=O)Nc4ccc(CN(C)C)cc4)cc3C2=O)c2cc(OC)ccc21 [Compound 719, 1-{4-[(dimethylamino)methyl]phenyl}-3-{(2Z)-2-[(1-ethyl-5-methoxy-2-methyl-1H-indol-3-yl)methylidene]-3-oxo-2,3-dihydro-1-benzofuran-5-yl}urea]"
6250 nM,> 10000 nM,> 20000 nM,"COc1ccc2c(c1)c(/C=C1\Oc3cc(-c4ccc(NC(C)=O)cc4)ccc3C1=O)cn2CCCN(C)C [Example 426, N-{4-[(2Z)-2-({1-[3-(Dimethylamino)propyl]-5-methoxy-1H-indol-3-yl}methylene)-3-oxo-2,3-dihydro-1-benzofuran-6-yl]phenyl}acetamide]"
1800 nM,> 10000 nM,260 nM,"Cn1cc(C=C2Oc3cc(O)cc(O)c3C2=O)c2c(C#N)cccc21 [Example 188, 3-[(4,6-dihydroxy-3-oxo-1-benzofuran-2(3H)-ylidene)methyl]-1-methyl-1H-indole-4-carbonitrile]"
1070 nM,3000 nM,14 nM,"Cn1cc(/C=C2\Oc3cc(O)cc(O)c3C2=O)c2c(-c3ccc(N)cc3)cccc21 [Example 370, (2Z)-2-{[4-(4-Aminophenyl)-1-methyl-1H-indol-3-yl]methylene}-4,6-dihydroxy-1-benzofuran-3(2H)-one]"
3.5 nM,81 nM,3.75 nM,"COc1ccc2c(c1)c(/C=C1\Oc3cc(O)cc(O)c3C1=O)c(C1CCC1)n2CCN1CCN(C)CC1 [Example 446, (2Z)-2-({2-Cyclobutyl-5-methoxy-1-[2-(4-methylpiperazin-1-yl)ethyl]-1H-indol-3-yl}methylene)-4,6-dihydroxy-1-benzofuran-3(2H)-one]"
0.8 nM,3.65 nM,23 nM,"COc1cc(F)c2[nH]c(-c3c(C)nn(C)c3C)c(/C=C3\Oc4ccc(NC(=O)NCCN(C)C)cc4C3=O)c2c1 [Compound 716, 1-[2-(dimethylamino)ethyl]-3-[(2Z)-2-{[7-fluoro-5-methoxy-2-(1,3,5-trimethyl-1H-pyrazol-4-yl)-1H-indol-3-yl]methylidene}-3-oxo-2,3-dihydro-1-benzofuran-5-yl]urea]"
3 nM,26.5 nM,4.2 nM,"COc1ccc2c(c1)c(/C=C1\Oc3cc(O)cc(O)c3C1=O)c(C1CC1)n2CCN1CCC(O)CC1 [Example 315, (2Z)-2-({2-Cyclopropyl-1-[2-(4-hydroxypiperidin-1-yl)ethyl]-5-methoxy-1H-indol-3-yl}methylene)-4,6-dihydroxy-1-benzofuran-3(2H)-one]"
0.4 nM,3 nM,31 nM,"CCn1c(C)c(/C=C2\Oc3ccc(NC(=O)Nc4ccc(C(=O)N5CCC(N(C)C)CC5)cc4)cc3C2=O)c2cc(OC)ccc21 [Compound 650, 1-(4-{[4-(dimethylamino)piperidin-1-yl]carbonyl}phenyl)-3-{(2Z)-2-[(1-ethyl-5-methoxy-2-methyl-1H-indol-3-yl)methylene]-3-oxo-2,3-dihydro-1-benzofuran-5-yl}urea]"
23 nM,246 nM,240 nM,"CNC(=O)Nc1ccc2c(c1)C(=O)/C(=C/c1c(-c3c(C)nn(C)c3C)[nH]c3c(OC)c(F)c(OC)cc13)O2 [Compound 712, 1-[(2Z)-2-{[6-fluoro-5,7-dimethoxy-2-(1,3,5-trimethyl-1H-pyrazol-4-yl)-1H-indol-3-yl]methylidene}-3-oxo-2,3-dihydro-1-benzofuran-5-yl]-3-methylurea]"
> 10000 nM,> 10000 nM,> 20000 nM,"COc1ccc2[nH]cc(C=C3Oc4cc(SC)ccc4C3=O)c2c1 [Example 434, 2-[(5-Methoxy-1H-indol-3-yl)methylene]-6-(methylthio)-1-benzofuran-3(2H)-one]"
8 nM,123 nM,85 nM,"COc1ccc2[nH]c(-c3c(C)nn(C)c3C)c(/C=C3\Oc4ccc(NC(=O)Nc5cccc(C(=O)N(C)CCN(C)C)c5)cc4C3=O)c2c1 [Compound 707, N-[2-(dimethylamino)ethyl]-3-({[(2Z)-2-{[5-methoxy-2-(1,3,5-trimethyl-1H-pyrazol-4-yl)-1H-indol-3-yl]methylidene}-3-oxo-2,3-dihydro-1-benzofuran-5-yl]carbamoyl}amino)-N-methylbenzamide]"
3740 nM,5940 nM,355 nM,"Cn1cc(/C=C2\Oc3cc(O)cc(O)c3C2=O)c2c(-c3ccc(NCCN4CCOCC4)nc3)cccc21 [Example 402, (2Z)-4,6-Dihydroxy-2-[(1-methyl-4-{6-[(2-morpholin-4-ylethyl)amino]pyridin-3-yl}-1H-indol-3-yl)methylene]-1-benzofuran-3(2H)-one]"
